Assay [1] has as its system Malondialdehyde (MDA) in serum. Nature of the assay: In vivo anti-lipid oxidation experiment (serum MDA, TBA method). Also noted: inhibition rate %: concentration or dose not given beside the values. The following applies: MAD lipid peroxidation in vivo; for inhibition rate %: relative to solvent DMSO and Chow averages; for avarage value of OD: serum, TBA method, 532 nm. A digest of the protocol:
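Serum mixed with TBA-based reagents in acetic acid, heated at 95° C for 60 min, centrifuged, supernatant OD read at 532 nm. MDA calculated against 10 nmol/mL tetraethoxypropane standard after subtracting a per-sample control tube (50% glacial acetic acid replacing Reagent III); inhibition % normalised between Chow and DMSO-solvent groups.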

The test system of assay [2] is golden hamsters (high-fat food, STZ induced). Briefly: Golden hamster disease model, animal model induction group (24-week-old group): blood biochemical indexes and body weight. Type of assay: in vivo. The note with it: for change rate of blood glucode %: 0.1 mL of 6.8 mg/mL DMSO solution + 0.25 mL whole milk by gavage once a day for 2 weeks; for change rate of body weight after deduction of DMSO blank %: DMSO blank deducted; for change of body weight/g / change rate of body weight %: after gavage once a day for 2 weeks; for HDL % / LDL % / total cholesterol % / triglyceride %: change rate, gavage once a day for 2 weeks; for average body weight at 24 weeks/g: initial weight before administration. The text has this: (§1) Animals and feed: 1) 8-week-old male golden hamsters with a body weight range of 100±5 g were selected; 2) 60% high-fat food; 3) 30% high-fat food; 4) general feed: NRC standard feed, containing 5% fat, total calories 4200 kcal/kg.
Animal model induction group (24-week-old group): After STZ induction, the golden hamsters were continuous fed with 30% high-fat food for 8 weeks, blood was taken from the ocular venous plexus, and the initial body weight, blood glucose concentration, total cholesterol, LDL-c, HDL-c and triglyceride were measured, and the golden hamsters were grouped in parallel according to animal biochemical indicators, 8 in each group; 5) Gavage of compounds: 0.1 mL of solution of compound (concentration: 6.8 mg/mL, DMSO solution) and 0.25 mL of whole milk were mixed evenly and administrated by gavage once a day for 2 weeks; 6) Blank control: 0.1 mL of DMSO and 0.25 mL of whole milk were mixed and administrated by gavage, once a day for 2 weeks; 6) Blank control: 0.1 mL of DMSO were mixed with 0.25 mL of whole milk, and administrated by gavage, once a day for 2 weeks; 7) 14 days later, blood was taken from the ocular venous plexus, and the body weight, blood glucose, total cholesterol, LDL-c, HDL-c and triglyceride were measured.
(§2) Instruments: Shimadzu UV-1750 spectrophotometer, clinical determination kit (Changchun Huili Biotechnology Co., Ltd.)
(§3) Determination of blood glucose: glucose oxidase method, kit
(§4) Determination of total cholesterol (COD-PAP method), kit
(§5) Determination of low density lipoprotein cholesterol (direct method), kit
(§6) Determination of triglyceride (GP-PAP method)
(§7) Determination of high density lipoprotein (direct method), kit

Assay [3] in a line: In vitro free radical inhibition test (DPPH method). The note with it: 8 μL of 20 mmol/L compound in 1 mL DPPH 0.059 mg/mL ethanol, 60 min dark, 517 nm; for inhibition rate %: DPPH; for Relative inhibition ability on free radicals: inhibition rate of AGI1067 on DPPH defined as 100. A digest of the protocol: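 DPPH in absolute ethanol (0.059 mg/mL) was mixed with test compound (20 mmol/L stock) and kept in the dark at room temperature for 60 minutes. Radical scavenging was read as loss of absorbance at 517 nm.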

Assay [4] relates to golden hamsters (60% high-fat food, STZ induced). Briefly: Golden hamster disease model, animal model induction group (16-week-old group): blood biochemical indexes and body weight. It is filed as in vivo. The following applies: for change rate of blood glucose %: 0.1 mL of 6.8 mg/mL DMSO solution + 0.25 mL whole milk by gavage once a day for 2 weeks; for change rate of body weight after deduction of DMSO blank %: DMSO blank deducted; for average body weight after administration/g / change of body weight/g / change rate of body weight %: after gavage once a day for 2 weeks; for HDL % / LDL % / total cholesterol % / triglyceride %: change rate, gavage once a day for 2 weeks. As for the experimental part:
as §1
Animal model induction group (16-week-old group): 1) fed with 60% high-fat food for 2 weeks under standard environment; 2) STZ intraperitoneal injection twice every two days, 50 mg/kg each time; 3) After STZ induction, the golden hamsters were continuous fed for 1 week; 4) Blood was taken from the ocular venous plexus, and the initial body weight, blood glucose, total cholesterol, LDL-c, HDL-c and triglyceride were measured, and the golden hamsters were grouped in parallel according to animal biochemical indicators, 8 in each group; 5) Gavage of compounds: 0.1 mL of solution of compound (concentration: 6.8 mg/mL, DMSO solution) and 0.25 mL of whole milk were mixed evenly and administrated by gavage once a day for 2 weeks; 6) Blank control: 0.1 mL of DMSO and 0.25 mL of whole milk were mixed evenly and administrated by gavage once a day for 2 weeks; 7) Observation time: 14 days later, blood was taken from the ocular venous plexus, and the body weight, blood glucose, total cholesterol, LDL-c, HDL-c and triglyceride were measured.
as §2, §3, §4, §5, §6, §7

Four molecules from US11649220B2 (DEMOTECH.INC., priority 2018, dated 2023) can be followed below.

Structures are written as SMILES.

With `CC(O)c1cc(SSc2cc(C(C)O)c(O)c(C(C)(C)C)c2)cc(C(C)(C)C)c1O` (stereo not shown) [Compound 5, 4,4′-disulfanediyl-bis(2-(tert-butyl)-6-(1-hydroxyethyl)phenol)], in assay [1], the inhibition rate % is recorded as 79.6% and the “avarage value of OD” value amounted to 6.21. In assay [2], the “change rate of blood glucode %” value stood at 11.5%, the “change rate of body weight after deduction of DMSO blank %” value (from here on “change rate … of DMSO blank %”) is on record as −13.6%, the “change of body weight/g” value is -25.0 g and the “change rate of body weight %” value was −21.1%. In addition, in assay [2], the HDL % is recorded as −69.2%, the LDL % is listed as −33.9%, the total cholesterol % came out at 6.6% and the triglyceride % was −65.8%. For the same molecule, in assay [2], the “average body weight at 24 weeks/g” value is reported as 118.1 g. For the same molecule, in assay [3], the inhibition rate % was 48.1% and the “Relative inhibition ability on free radicals” value was found to be 110.2. Besides, in assay [4], the “change rate of blood glucose %” value was 19.7%, the “change rate … of DMSO blank %” value is −1.9%, the “average body weight after administration/g” value stood at 145.2 g and the “change of body weight/g” value turned out to be 10.6 g. In addition, in assay [4], the “change rate of body weight %” value is listed as 7.9%, the HDL % is 38.8%, the LDL % is reported as −24.9% and the total cholesterol % was −12.2%. Further, the triglyceride % in assay [4] is given as −28.5%.

Take `CC(C)(Sc1cc(C(C)(C)C)c(O)c(C(C)(C)C)c1)Sc1cc(C(C)(C)C)c(O)c(C(C)(C)CCOC(=O)CCCCC2CCSS2)c1` (stereo not shown) [Compound 12, 3-(3-(tert-butyl)-5-((2-((3,5-di-tert-butyl-4-hydroxyphenyl)thio)propan-2-yl)thio)-2-hydroxyphenyl)-3-methylbutyl 5-(1,2-dithiolan-3-yl)pentanoate]: in assay [1], the inhibition rate % amounted to 64.0% and the “avarage value of OD” value amounted to 6.82. Moreover, in assay [2], the “change rate of blood glucode %” value is on record as −29.0%, the “change rate … of DMSO blank %” value is −6.6%, the “change of body weight/g” value was -17.3 g and the “change rate of body weight %” value is on record as −14.2%. Besides, in assay [2], the HDL % was −72.1%, the LDL % is listed as −32.7%, the total cholesterol % is given as −0.3% and the triglyceride % was −51.7%. The “average body weight at 24 weeks/g” value in assay [2] was found to be 122.4 g. In assay [3], the inhibition rate % amounted to 36.5% and the “Relative inhibition ability on free radicals” value is recorded as 83.6. For the same molecule, in assay [4], the “change rate of blood glucose %” value is given as −17.0%, the “change rate … of DMSO blank %” value is −1.6%, the “average body weight after administration/g” value worked out at 135.4 g and the “change of body weight/g” value was -2.3 g. Further, in assay [4], the “change rate of body weight %” value is given as −1.6%, the HDL % was −3.4%, the LDL % was −35.8% and the total cholesterol % was −30.7%. Besides, in assay [4], the triglyceride % is reported as −43.0%.

As to `COC(=O)CNCCC(C)(C)c1cc(SC(C)(C)Sc2cc(C(C)(C)C)c(O)c(C(C)(C)C)c2)cc(C(C)(C)C)c1O` [Compound 21], in assay [1], the inhibition rate % is 53.3% and the “avarage value of OD” value came out at 7.23. Also, in assay [2], the “change rate of blood glucode %” value is on record as −12.4%, the “change rate … of DMSO blank %” value is listed as −6.1%, the “change of body weight/g” value was -16.4 g and the “change rate of body weight %” value was −13.6%. Moreover, in assay [2], the HDL % is −70.1%, the LDL % is reported as −21.8%, the total cholesterol % is on record as 23.5% and the triglyceride % is on record as −65.1%. For the same molecule, in assay [2], the “average body weight at 24 weeks/g” value is 120.0 g. In assay [3], the inhibition rate % is reported as 22.3% and the “Relative inhibition ability on free radicals” value stood at 51.2. In addition, in assay [4], the “change rate of blood glucose %” value is on record as −35.5%, the “change rate … of DMSO blank %” value is −1.6%, the “average body weight after administration/g” value came out at 142.5 g and the “change of body weight/g” value came to 10.7 g. In addition, in assay [4], the “change rate of body weight %” value is 8.1%, the HDL % is 56.3%, the LDL % is given as 14.2% and the total cholesterol % is recorded as −0.6%. The triglyceride % in assay [4] is listed as −6.5%.

As to `CC(C)(Sc1cc(C(C)(C)C)c(O)c(C(C)(C)C)c1)Sc1cc(C(C)(C)C)c(OC(=O)CCC(=O)NCCS(=O)(=O)O)c(C(C)(C)C)c1` [Compound 26, 2-(4-(2,6-di-tert-butyl-4-((2-((3,5-di-tert-butyl-4-hydroxyphenyl)thio)propan-2-yl)thio)phenoxy)-4-oxobutanamido)ethane-1-sulfonic acid], in assay [1], the inhibition rate % was 108.7% and the “avarage value of OD” value amounted to 5.10. Further, in assay [2], the “change rate of blood glucode %” value is −14.2%, the “change rate … of DMSO blank %” value is reported as −6.4%, the “change of body weight/g” value was -18.1 g and the “change rate of body weight %” value is listed as −13.9%. In assay [2], the HDL % is on record as −67.5%, the LDL % was −23.0%, the total cholesterol % stood at 30.5% and the triglyceride % was −5.1%. In addition, the “average body weight at 24 weeks/g” value in assay [2] was 130.1 g. In addition, in assay [3], the inhibition rate % stood at 16.3% and the “Relative inhibition ability on free radicals” value was found to be 37.4. In assay [4], the “change rate of blood glucose %” value was −16.8%, the “change rate … of DMSO blank %” value was −2.9%, the “average body weight after administration/g” value is 145.2 g and the “change of body weight/g” value is listed as 9.4 g. Besides, in assay [4], the “change rate of body weight %” value is 6.9%, the HDL % turned out to be 108.8%, the LDL % is −6.2% and the total cholesterol % was −9.0%. In addition, the triglyceride % in assay [4] stood at 3.0%.
